From patent publication US11040981B2, “Pyrrolotriazine compounds and methods of inhibiting TAM kinases” (Syros Pharmaceuticals, Inc., priority 2017, dated 2021)

Columns and labels:
[1] = molecular target: T1, FLT3 (Homo sapiens, UniProt P36888); test: TR-FRET kinase activity assay, FLT3; format: biochemical; settings: ATP at Km, 60 minutes
T1 sequence (P36888 27-993): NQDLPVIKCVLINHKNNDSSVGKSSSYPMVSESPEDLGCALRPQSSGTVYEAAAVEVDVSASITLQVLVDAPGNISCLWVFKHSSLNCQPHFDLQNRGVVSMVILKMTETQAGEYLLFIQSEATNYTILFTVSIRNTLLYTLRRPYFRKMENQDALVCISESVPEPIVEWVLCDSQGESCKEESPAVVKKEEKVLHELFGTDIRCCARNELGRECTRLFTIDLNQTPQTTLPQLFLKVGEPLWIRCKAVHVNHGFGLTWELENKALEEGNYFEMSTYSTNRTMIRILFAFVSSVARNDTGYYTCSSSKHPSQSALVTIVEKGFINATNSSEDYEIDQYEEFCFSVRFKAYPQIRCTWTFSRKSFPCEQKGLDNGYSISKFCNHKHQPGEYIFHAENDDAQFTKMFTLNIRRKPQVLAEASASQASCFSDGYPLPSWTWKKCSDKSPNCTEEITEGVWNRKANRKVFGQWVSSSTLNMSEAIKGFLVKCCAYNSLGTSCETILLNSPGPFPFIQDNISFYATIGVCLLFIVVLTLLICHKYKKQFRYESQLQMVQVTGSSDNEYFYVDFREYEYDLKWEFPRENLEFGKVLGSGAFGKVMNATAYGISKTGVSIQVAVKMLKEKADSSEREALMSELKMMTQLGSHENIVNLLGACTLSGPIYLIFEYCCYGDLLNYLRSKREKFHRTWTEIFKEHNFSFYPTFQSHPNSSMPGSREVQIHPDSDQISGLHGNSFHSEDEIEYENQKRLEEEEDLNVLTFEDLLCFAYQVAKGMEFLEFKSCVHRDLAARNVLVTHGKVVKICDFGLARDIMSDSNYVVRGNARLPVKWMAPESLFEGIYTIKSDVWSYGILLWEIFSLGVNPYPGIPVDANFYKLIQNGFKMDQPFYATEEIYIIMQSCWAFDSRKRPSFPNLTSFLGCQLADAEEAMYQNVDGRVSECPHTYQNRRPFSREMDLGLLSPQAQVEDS
How it was run: (§1)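 Enzyme, fluorescent peptide substrate and compound were mixed, and the reaction was started with ATP at each kinase's Km, in 50 mM HEPES pH 7.5, 10 mM MgCl2, 1 mM EGTA, 0.01% Brij 35, 1 mM DTT at RT. After 60 minutes EDTA quench, Eu-labelled phospho-specific antibody was added for 30 minutes, and IC50 was derived from TR-FRET signal loss.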

[2] = molecular target: T2, TYRO3 (Homo sapiens, UniProt Q06418); test: TR-FRET kinase activity assay, TYRO3; format: biochemical; settings: ATP at Km, 60 minutes
T2 sequence (Q06418 41-890): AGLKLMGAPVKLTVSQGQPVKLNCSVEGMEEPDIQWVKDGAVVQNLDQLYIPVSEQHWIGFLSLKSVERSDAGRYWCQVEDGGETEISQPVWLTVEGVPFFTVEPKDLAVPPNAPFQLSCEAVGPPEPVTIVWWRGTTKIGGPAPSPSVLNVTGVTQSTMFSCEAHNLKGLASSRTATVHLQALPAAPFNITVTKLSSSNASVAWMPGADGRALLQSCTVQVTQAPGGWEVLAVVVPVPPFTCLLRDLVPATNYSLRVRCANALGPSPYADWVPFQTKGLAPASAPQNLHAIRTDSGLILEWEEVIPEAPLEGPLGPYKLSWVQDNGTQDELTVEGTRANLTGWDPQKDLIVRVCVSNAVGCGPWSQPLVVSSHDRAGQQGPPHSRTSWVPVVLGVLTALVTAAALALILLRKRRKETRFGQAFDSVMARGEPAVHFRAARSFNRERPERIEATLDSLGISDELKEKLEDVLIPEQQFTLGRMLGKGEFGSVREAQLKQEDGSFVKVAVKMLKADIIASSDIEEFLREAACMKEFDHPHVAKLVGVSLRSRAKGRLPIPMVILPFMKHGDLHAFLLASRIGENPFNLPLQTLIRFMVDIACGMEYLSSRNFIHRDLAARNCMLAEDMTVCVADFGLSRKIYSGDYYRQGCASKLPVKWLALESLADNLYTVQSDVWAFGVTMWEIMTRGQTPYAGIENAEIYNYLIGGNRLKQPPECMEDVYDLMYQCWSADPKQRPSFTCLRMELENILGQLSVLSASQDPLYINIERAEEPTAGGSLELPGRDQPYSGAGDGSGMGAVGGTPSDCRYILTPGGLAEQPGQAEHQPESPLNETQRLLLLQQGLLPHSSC
How it was run: as §1

Compound	IC50 [1]	IC50 [2]
COC[C@H](C)Nc1ncc2c(-c3cnn(C(C)(C)C(=O)N4CC[C@H](O)C4)c3)cc([C@H]3CC[C@H](O)CC3)n2n1 [Compound 554]	1000 to 10000 nM	≤ 100 nM
COC[C@H](C)Nc1ncc2c(-c3cnn(C(C)(C)C(=O)N4CC[C@@H](O)C4)c3)cc([C@H]3CC[C@H](O)CC3)n2n1 [Compound 555]	1000 to 10000 nM	≤ 100 nM
COC[C@H](C)Nc1ncc2c(-c3cnn(C(C)(C)C(=O)N4CCOC(C(C)(C)O)C4)c3)cc([C@H]3CC[C@H](O)CC3)n2n1 (stereo partly drawn) [Compound 556]	1000 to 10000 nM	≤ 100 nM
CC(C)(O)C1CN(c2cc(-c3cc([C@H]4CC[C@H](O)CC4)n4nc(NCCOC(F)F)ncc34)ccn2)CCO1 (stereo partly drawn) [Compound 557]	100 to 1000 nM	≤ 100 nM
COC[C@H](C)Nc1ncc2c(-c3cnn(C(C)(C)C(=O)N4CCOCC4)c3)cc([C@H]3CC[C@](C)(O)CC3)n2n1 [Compound 560]	100 to 1000 nM	≤ 100 nM
COC[C@H](C)Nc1ncc2c(-c3cnn(C(C)(C)C(=O)N4CCOCC4)c3)cc([C@H]3CC[C@@](C)(O)CC3)n2n1 [Compound 561]	100 to 1000 nM	≤ 100 nM
COC[C@H](C)Nc1ncc2c(-c3cnn(C(C)(C)c4nnc(C5CC5)o4)c3)cc([C@H]3CC[C@H](O)CC3)n2n1 [Compound 563]	100 to 1000 nM	≤ 100 nM
COC[C@H](C)Nc1ncc2c(-c3cnn(C4COC4)c3)cc([C@H]3CC[C@@H](O)CC3)n2n1 [Compound 564]	≤ 100 nM	≤ 100 nM
COC[C@H](C)Nc1ncc2c(-c3ccc(CN4CCN(C)CC4)nc3)cc([C@H]3CC[C@H](O)CC3)n2n1 [Compound 565]	100 to 1000 nM	≤ 100 nM
CCS(=O)(=O)N1CC(CC#N)(n2cc(-c3cc([C@H]4CC[C@H](O)CC4)n4nc(N[C@@H](C)COC)ncc34)cn2)C1 [Compound 567]	1000 to 10000 nM	≤ 100 nM
CC[C@]1(O)CC[C@H](c2cc(-c3ccnc(N4CCOCC4)c3)c3cnc(N[C@@H](C)COC)nn32)CC1 [Compound 568]	100 to 1000 nM	≤ 100 nM
COC[C@H](C)Nc1ncc2c(-c3cnn(C4COC4)c3)cc([C@@H]3CC[C@@H](O)C(C)(C)C3)n2n1 [Compound 570]	100 to 1000 nM	≤ 100 nM
COC[C@H](C)Nc1ncc2c(-c3cnn(C4COC4)c3)cc([C@@H]3CC[C@H](O)C(C)(C)C3)n2n1 [Compound 571]	100 to 1000 nM	≤ 100 nM
COC[C@H](C)Nc1ncc2c([C@H]3CC[C@H](C(C)=O)CC3)cc([C@H]3CC[C@H](O)CC3)n2n1 [Compound 576]	1000 to 10000 nM	≤ 100 nM
COC[C@H](C)Nc1ncc2c([C@H]3CC[C@@H](C(=O)N4CCC(F)(F)CC4)CC3)cc([C@H]3CC[C@H](O)CC3)n2n1 [Compound 577]	1000 to 10000 nM	≤ 100 nM
COC[C@H](C)Nc1ncc2c([C@H]3CC[C@H](C(=O)N4CC5(COC5)C4)CC3)cc([C@H]3CC[C@H](O)CC3)n2n1 [Compound 578]	1000 to 10000 nM	≤ 100 nM
COC[C@H](C)Nc1ncc2c([C@H]3CC[C@@H](C(=O)N4CC5(COC5)C4)CC3)cc([C@H]3CC[C@H](O)CC3)n2n1 [Compound 579]	1000 to 10000 nM	≤ 100 nM
COC[C@H](C)Nc1ncc2c(-c3cnn(C(C)(C)C(=O)N4CCO[C@@H](C(C)(C)O)C4)c3)cc([C@H]3CC[C@H](O)CC3)n2n1 [Compound 585]	1000 to 10000 nM	≤ 100 nM
COC[C@H](C)Nc1ncc2c(-c3cnn(C(C)(C)C(=O)N4CCOC(C(C)(C)O)C4)c3)cc([C@H]3CC[C@H](O)CC3)n2n1 (stereo partly drawn) [Compound 586]	1000 to 10000 nM	≤ 100 nM
COC[C@H](C)Nc1ncc2c(-c3cnn(C4COC4)c3)cc([C@@H]3CC[C@H](O)[C@H](C)C3)n2n1 [Compound 587]	100 to 1000 nM	≤ 100 nM
COC[C@H](C)Nc1ncc2c(-c3cnn(C4COC4)c3)cc([C@@H]3CC[C@H](O)[C@@H](C)C3)n2n1 [Compound 588]	100 to 1000 nM	≤ 100 nM
COC[C@H](C)Nc1ncc2c(-c3cnn(C4COC4)c3)cc([C@@H]3CC[C@@H](O)[C@H](C)C3)n2n1 [Compound 589]	100 to 1000 nM	≤ 100 nM
COC[C@H](C)Nc1ncc2c(-c3cnn(C(C)(C)C(=O)N4C[C@@H](C)N[C@@H](C)C4)c3)cc([C@H]3CC[C@@H](O)CC3)n2n1 [Compound 591]	1000 to 10000 nM	≤ 100 nM

Now from value to molecule:

IC50 [1]	IC50 [2]	Compound
1000 to 10000 nM	≤ 100 nM	COCC(C)Nc1ncc2c(-c3cccc(-c4nnc(C)o4)c3)cc(C3CCC(O)CC3)n2n1 (stereo not drawn) [Compound 551]
100 to 1000 nM	≤ 100 nM	COCC(C)Nc1ncc2c(-c3ccc4ncoc4c3)cc(C3CCC(O)CC3)n2n1 (stereo not drawn) [Compound 552]
100 to 1000 nM	≤ 100 nM	COCC(C)Nc1ncc2c(-c3ccc4[nH]cnc4c3)cc(C3CCC(O)CC3)n2n1 (stereo not drawn) [Compound 553]
100 to 1000 nM	≤ 100 nM	COC[C@H](C)Nc1ncc2c(-c3ccnc(N4CCO[C@H](C(C)(C)O)C4)c3)cc([C@H]3CC[C@H](O)CC3)n2n1 [Compound 558]
100 to 1000 nM	≤ 100 nM	COCC(C)Nc1ncc2c(-c3ccnc(N4CCOC(C(C)(C)O)C4)c3)cc(C3CCC(O)CC3)n2n1 (stereo not drawn) [Compound 559]
≤ 100 nM	≤ 100 nM	COCC(C)Nc1ncc2c(-c3cccc(N4CCOCC4)c3)cc(C3CCC(O)CC3)n2n1 (stereo not drawn) [Compound 562]
100 to 1000 nM	≤ 100 nM	COC[C@H](C)Nc1ncc2c(-c3ccnc(C4COC4)c3)cc([C@H]3CC[C@H](O)CC3)n2n1 [Compound 566]
> 10000 nM	≤ 100 nM	COC[C@H](C)Nc1ncc2c(-c3cncc([S@](C)(=N)=O)c3)cc([C@H]3CC[C@@H](O)CC3)n2n1 [Compound 572]
> 10000 nM	≤ 100 nM	COC[C@H](C)Nc1ncc2c(-c3cncc([S@@](C)(=N)=O)c3)cc([C@H]3CC[C@H](O)CC3)n2n1 [Compound 573]
1000 to 10000 nM	≤ 100 nM	COC[C@H](C)Nc1ncc2c(-c3ccnc([S@@](C)(=N)=O)c3)cc([C@H]3CC[C@H](O)CC3)n2n1 [Compound 574]
1000 to 10000 nM	≤ 100 nM	COC[C@H](C)Nc1ncc2c(-c3ccnc([S@](C)(=N)=O)c3)cc([C@H]3CC[C@H](O)CC3)n2n1 [Compound 575]
≤ 100 nM	≤ 100 nM	C[C@@H](CC(F)(F)F)Nc1ncc2c(-c3ccnc([S@](C)(=N)=O)c3)cc([C@H]3CC[C@H](O)CC3)n2n1 [Compound 580]
≤ 100 nM	≤ 100 nM	C[C@@H](CC(F)(F)F)Nc1ncc2c(-c3ccnc([S@@](C)(=N)=O)c3)cc([C@H]3CC[C@H](O)CC3)n2n1 [Compound 581]
1000 to 10000 nM	≤ 100 nM	C[C@@H](CC(F)(F)F)Nc1ncc2c(-c3cncc([S@](C)(=N)=O)c3)cc([C@H]3CC[C@H](O)CC3)n2n1 [Compound 582]
100 to 1000 nM	≤ 100 nM	C[C@@H](CC(F)(F)F)Nc1ncc2c(-c3cncc([S@@](C)(=N)=O)c3)cc([C@H]3CC[C@H](O)CC3)n2n1 [Compound 583]
1000 to 10000 nM	≤ 100 nM	COC[C@H](C)Nc1ncc2c(-c3ccnc(C(F)(F)F)c3)cc([C@H]3CC[C@H](O)CC3)n2n1 [Compound 584]
